Data set [1] has as its system Rattus norvegicus. Description: Antihypertensive activity in spontaneously hypertensive rat assessed as drop in mean systolic blood pressure at 100 mg/kg, po after 4 hrs by tail cuff method relative to vehicle-treated control. In kind it is functional, Artery.
Data set [2] relates to Rattus norvegicus. Briefly: Antihypertensive activity in spontaneously hypertensive rat assessed as drop in mean systolic blood pressure at 100 mg/kg, po after 24 hrs by tail cuff method relative to vehicle-treated control. Format: functional, Artery.
Data set [3] relates to Rattus norvegicus. Briefly: Antihypertensive activity in spontaneously hypertensive rat assessed as drop in mean systolic blood pressure at 100 mg/kg, po followed by second dosing at 24 hrs measured after 28 hrs by tail cuff method relative to vehicle-treated control. Format: functional, Artery.
Data set [4] has as its system Rattus norvegicus. Description: Antihypertensive activity in spontaneously hypertensive rat assessed as drop in mean systolic blood pressure at 100 mg/kg, po followed by second dosing at 24 hrs measured after 48 hrs by tail cuff method relative to vehicle-treated control. In kind it is functional, Artery.
The nature of data set [5]: Toxicity in ip dosed CF-1 mouse after 48 hrs. The note with it: in vivo.

Activity calls are given as the source filed them. The rule behind the calls is not given here.

Consider `NNc1nncc(-c2cccc(Cl)c2)n1`, for which the Activity is given as 0 mmHg in the data set on Rattus norvegicus [1], 0 mmHg in the data set on Rattus norvegicus [2], 55 mmHg with Rattus norvegicus [3] and 51 mmHg in the data set on Rattus norvegicus [4]. Further, the 50% lethal dose (LD50) at 48 h in data set [5] is 237 mg/kg.

For `O=C(NNc1nncc(-c2ccccc2)n1)c1ccccc1`, the result in the data set on Rattus norvegicus [1] (Artery), in the data set with Rattus norvegicus [2] (Artery), in the data set with Rattus norvegicus [3] (Artery) and in the data set on Rattus norvegicus [4] (Artery) was inactive. In addition, the LD50 at 48 h in data set [5] was more than 300 mg/kg.

In the case of `COc1ccc(-c2cnnc(NNC(C)=O)n2)cc1`, the outcome in the data set with Rattus norvegicus [1] (Artery), in the data set with Rattus norvegicus [2] (Artery), with Rattus norvegicus [3] (Artery) and in the data set with Rattus norvegicus [4] (Artery) was inactive. For the same molecule, the LD50 at 48 h in data set [5] worked out at 237 mg/kg.

Consider `O=C(NNc1nncc(-c2ccccc2)n1)C(F)(F)F`, for which the Activity with Rattus norvegicus [1] was found to be 51 mmHg; with Rattus norvegicus [2], 29 mmHg; in the data set on Rattus norvegicus [3], 70 mmHg; with Rattus norvegicus [4] it was 88 mmHg. For the same molecule, in data set [5], the median lethal dose (LD50) at 48 h was determined as 178 mg/kg.

With `CC(=O)NNc1nncc(-c2ccc(C)cc2)n1.O`, the result with Rattus norvegicus [1] (Artery), in the data set on Rattus norvegicus [2] (Artery), with Rattus norvegicus [3] (Artery) and with Rattus norvegicus [4] (Artery) was inactive. Besides, the 50% lethal dose (LD50) at 48 h in data set [5] was more than 300 mg/kg.

As for `CCC(=O)NNc1nncc(-c2ccc(Cl)cc2)n1`, the Activity in the data set with Rattus norvegicus [1] is on record as 47 mmHg; with Rattus norvegicus [2] it was 79 mmHg; with Rattus norvegicus [3], 107 mmHg; in the data set on Rattus norvegicus [4] it was 111 mmHg. Moreover, in data set [5], the median lethal dose (LD50) at 48 h came to 237 mg/kg.

Turning to `O=C(CCCCl)NNc1nncc(-c2ccc(Cl)cc2)n1`, the Activity with Rattus norvegicus [1] worked out at 0 mmHg; in the data set with Rattus norvegicus [2], 25 mmHg; in the data set with Rattus norvegicus [3], 48 mmHg; in the data set with Rattus norvegicus [4] it was 73 mmHg. Further, the LD50 at 48 h in data set [5] was 237 mg/kg.

The molecule `Br.CC(C)C(N)C(=O)NNc1nncc(-c2ccc(Cl)cc2)n1.O` (stereo unspecified) registered an LD50 at 48 h in data set [5] of 178 mg/kg.

In the case of `NNc1nncc(-c2cccc(C(F)(F)F)c2)n1`, the Activity with Rattus norvegicus [1] was 26 mmHg; with Rattus norvegicus [2], 0 mmHg; in the data set on Rattus norvegicus [3] it was 48 mmHg; in the data set on Rattus norvegicus [4], 40 mmHg. The molecule also yielded an LD50 at 48 h in data set [5] of 316 mg/kg.

Consider `Cc1ccc(-c2cnnc(NNC(=O)C(F)(F)F)n2)cc1`, for which the outcome in the data set with Rattus norvegicus [1] (Artery), with Rattus norvegicus [2] (Artery), with Rattus norvegicus [3] (Artery) and in the data set on Rattus norvegicus [4] (Artery) was inactive. The same molecule had an LD50 at 48 h in data set [5] of more than 300 mg/kg.

For the molecule `Br.NC(Cc1ccccc1)C(=O)NNc1nncc(-c2ccccc2)n1.O` (stereo unspecified), the Activity amounted to 26 mmHg with Rattus norvegicus [1], 38 mmHg with Rattus norvegicus [2], 75 mmHg with Rattus norvegicus [3] and 82 mmHg with Rattus norvegicus [4]. Besides, in data set [5], the LD50 at 48 h worked out at 178 mg/kg.

With `CCCCCC(=O)NNc1nncc(-c2ccccc2)n1.Cl`, the Activity with Rattus norvegicus [1] was found to be 53 mmHg; in the data set on Rattus norvegicus [2] it was 53 mmHg; with Rattus norvegicus [3], 81 mmHg; in the data set with Rattus norvegicus [4] it was 68 mmHg. Further, the LD50 at 48 h in data set [5] was determined as 178 mg/kg.

`O=C(NNc1nncc(-c2cccc(Cl)c2)n1)C(F)(F)F`: the Activity in the data set on Rattus norvegicus [1] was 0 mmHg; in the data set on Rattus norvegicus [2] it was 0 mmHg; in the data set with Rattus norvegicus [3], 64 mmHg; in the data set on Rattus norvegicus [4] it was 59 mmHg. The LD50 at 48 h in data set [5] was determined as 237 mg/kg.

Take `O=C(CCCl)NNc1nncc(-c2ccc(Cl)cc2)n1`: the result in the data set on Rattus norvegicus [1] (Artery), with Rattus norvegicus [2] (Artery), in the data set with Rattus norvegicus [3] (Artery) and in the data set with Rattus norvegicus [4] (Artery) was inactive. Also, the median lethal dose (LD50) at 48 h in data set [5] is 237 mg/kg.

`CNNc1nncc(-c2ccc(C)cc2)n1`: the result in the data set with Rattus norvegicus [1] (Artery), with Rattus norvegicus [2] (Artery), with Rattus norvegicus [3] (Artery) and with Rattus norvegicus [4] (Artery) was inactive. Besides, in data set [5], the 50% lethal dose (LD50) at 48 h amounted to 316 mg/kg.

`COc1ccc(-c2cnnc(NN)n2)cc1`: the Activity came to 48 mmHg in the data set on Rattus norvegicus [1], 26 mmHg in the data set with Rattus norvegicus [2], 38 mmHg in the data set with Rattus norvegicus [3] and 22 mmHg with Rattus norvegicus [4]. Besides, in data set [5], the LD50 at 48 h was 56 mg/kg.

Regarding `Br.CC(N)C(=O)NNc1nncc(-c2cccc(Cl)c2)n1.O` (stereo unspecified), the outcome in the data set with Rattus norvegicus [1] (Artery), in the data set with Rattus norvegicus [2] (Artery), in the data set with Rattus norvegicus [3] (Artery) and in the data set with Rattus norvegicus [4] (Artery) was inactive. The molecule also had an LD50 at 48 h in data set [5] of 178 mg/kg.

For the molecule `NNc1nncc(-c2ccc(Cl)cc2)n1`, the Activity is listed as 52 mmHg in the data set on Rattus norvegicus [1], 61 mmHg in the data set with Rattus norvegicus [2], 90 mmHg with Rattus norvegicus [3] and 87 mmHg with Rattus norvegicus [4]. The molecule also came in with an LD50 at 48 h in data set [5] of 237 mg/kg.

`CNNc1nncc(-c2ccc(Cl)cc2)n1`: the Activity worked out at 0 mmHg in the data set on Rattus norvegicus [1], 12 mmHg in the data set on Rattus norvegicus [2], 39 mmHg in the data set on Rattus norvegicus [3] and 53 mmHg with Rattus norvegicus [4]. Moreover, the LD50 at 48 h in data set [5] was found to be 316 mg/kg.

As for `O=C(NNc1nncc(-c2ccccc2)n1)C1CCCCC1`, the Activity with Rattus norvegicus [1] was 24 mmHg; in the data set on Rattus norvegicus [2], 51 mmHg; in the data set on Rattus norvegicus [3] it was 76 mmHg; in the data set on Rattus norvegicus [4], 79 mmHg. The molecule further had an LD50 at 48 h in data set [5] of 237 mg/kg.

Consider `O=C(NNc1nncc(-c2ccccc2)n1)C(Cl)Cl`, for which the Activity in the data set with Rattus norvegicus [1] is 33 mmHg; in the data set with Rattus norvegicus [2], 54 mmHg; with Rattus norvegicus [3], 106 mmHg; in the data set on Rattus norvegicus [4] it was 80 mmHg. Besides, the LD50 at 48 h in data set [5] came to 178 mg/kg.

For the molecule `CC(C)C(=O)NNc1nncc(-c2ccccc2)n1.Cl`, the Activity in the data set with Rattus norvegicus [1] amounted to 44 mmHg; in the data set with Rattus norvegicus [2], 46 mmHg; with Rattus norvegicus [3], 98 mmHg; in the data set with Rattus norvegicus [4] it was 83 mmHg. Also, the LD50 at 48 h in data set [5] is 178 mg/kg.

As for `Cc1ccc(-c2cnnc(NN)n2)cc1.O`, the Activity in the data set on Rattus norvegicus [1] came out at 62 mmHg; with Rattus norvegicus [2], 28 mmHg; in the data set on Rattus norvegicus [3], 75 mmHg; in the data set on Rattus norvegicus [4], 38 mmHg. The molecule further registered a 50% lethal dose (LD50) at 48 h in data set [5] of 224 mg/kg.

With `O=C(CCl)NNc1nncc(-c2ccccc2)n1`, the Activity in the data set with Rattus norvegicus [1] was 63 mmHg; in the data set on Rattus norvegicus [2], 74 mmHg; in the data set on Rattus norvegicus [3], 101 mmHg; with Rattus norvegicus [4], 55 mmHg. The LD50 at 48 h in data set [5] came out at 100 mg/kg.

As for `CC(=O)NNc1nncc(-c2ccc(Cl)c(Cl)c2)n1`, the result with Rattus norvegicus [1] (Artery), in the data set on Rattus norvegicus [2] (Artery), in the data set with Rattus norvegicus [3] (Artery) and with Rattus norvegicus [4] (Artery) was inactive. For the same molecule, the LD50 at 48 h in data set [5] is 237 mg/kg.

Regarding `Br.CC(N)C(=O)NNc1nncc(-c2ccc(Cl)cc2)n1.O` (stereo unspecified), the Activity with Rattus norvegicus [1] was determined as 44 mmHg; in the data set with Rattus norvegicus [2], 58 mmHg; with Rattus norvegicus [3], 91 mmHg; in the data set with Rattus norvegicus [4], 103 mmHg. The molecule further had an LD50 at 48 h in data set [5] of 237 mg/kg.

`CC(=O)NNc1nncc(-c2ccccc2)n1`: the Activity is 40 mmHg with Rattus norvegicus [1], 94 mmHg with Rattus norvegicus [2], 106 mmHg with Rattus norvegicus [3] and 104 mmHg in the data set on Rattus norvegicus [4]. Moreover, the LD50 at 48 h in data set [5] was found to be 178 mg/kg.

Take `Cl.O=C(Cc1ccccc1)NNc1nncc(-c2ccccc2)n1`: the outcome in the data set on Rattus norvegicus [1] (Artery), in the data set with Rattus norvegicus [2] (Artery), in the data set on Rattus norvegicus [3] (Artery) and in the data set on Rattus norvegicus [4] (Artery) was inactive. Further, the LD50 at 48 h in data set [5] is 237 mg/kg.

Consider `NNc1nncc(-c2ccc(Cl)c(Cl)c2)n1`, for which the outcome in the data set on Rattus norvegicus [1] (Artery), in the data set on Rattus norvegicus [2] (Artery), with Rattus norvegicus [3] (Artery) and in the data set on Rattus norvegicus [4] (Artery) was inactive. The molecule also gave an LD50 at 48 h in data set [5] of more than 300 mg/kg.

Turning to `Cl.O=C(NNc1nncc(-c2ccc(Cl)cc2)n1)C(Cl)(Cl)Cl`, the result in the data set with Rattus norvegicus [1] (Artery), with Rattus norvegicus [2] (Artery), with Rattus norvegicus [3] (Artery) and in the data set on Rattus norvegicus [4] (Artery) was inactive. The LD50 at 48 h in data set [5] stood at 237 mg/kg.

On to `O=C(NNc1nncc(-c2ccc(Cl)cc2)n1)C(F)(F)F`, for which the Activity in the data set with Rattus norvegicus [1] turned out to be 30 mmHg; with Rattus norvegicus [2] it was 46 mmHg; in the data set on Rattus norvegicus [3], 92 mmHg; in the data set with Rattus norvegicus [4], 74 mmHg. The molecule also yielded an LD50 at 48 h in data set [5] of 237 mg/kg.

Take `CNNc1nncc(-c2ccccc2)n1`: the Activity came to 0 mmHg in the data set on Rattus norvegicus [1], 49 mmHg with Rattus norvegicus [2], 56 mmHg with Rattus norvegicus [3] and 92 mmHg with Rattus norvegicus [4]. In data set [5], this molecule had a 50% lethal dose (LD50) at 48 h of 178 mg/kg.

For the molecule `Cc1ccc(-c2cnnc(NNC(=O)Cc3ccccc3)n2)cc1`, the outcome in the data set with Rattus norvegicus [1] (Artery), with Rattus norvegicus [2] (Artery), with Rattus norvegicus [3] (Artery) and in the data set with Rattus norvegicus [4] (Artery) was inactive. In data set [5], this molecule had an LD50 at 48 h of 237 mg/kg.

Take `CNNc1nncc(-c2cccc(Cl)c2)n1`: the Activity with Rattus norvegicus [1] is 28 mmHg; with Rattus norvegicus [2], 35 mmHg; with Rattus norvegicus [3], 63 mmHg; in the data set with Rattus norvegicus [4], 51 mmHg. In addition, in data set [5], the median lethal dose (LD50) at 48 h was found to be 237 mg/kg.

In the case of `Cc1ccc(-c2cnnc(NNC(=O)C34CC5CC(CC(C5)C3)C4)n2)cc1.Cl`, the Activity in the data set on Rattus norvegicus [1] is listed as 32 mmHg; in the data set on Rattus norvegicus [2] it was 0 mmHg; in the data set with Rattus norvegicus [3], 24 mmHg; in the data set on Rattus norvegicus [4], 30 mmHg. Besides, the LD50 at 48 h in data set [5] was 216 mg/kg.

The values above are taken from ChEMBL document CHEMBL3244078, “Synthesis and antihypertensive activity of novel 3-hydrazino-5-phenyl-1,2,4-triazines” (J Med Chem, 1979).
